Assay results from patent publication US8906945B2 (priority 2009, dated 2014).
Entries after “also recorded” stand apart in the source; their conditions may differ. Like-named read-outs stand apart in the source and are kept apart here.

Key:
[1] = system: T3SS-mediated secretion of YopE-βLA fusion protein from Y. pestis strain JG153/pMM85; experiment: microbe, parasite or virus in culture; format: cell-based; conditions: Yersinia pestis
[2] = system: HeLa cell internalization of P. aeruginosa; experiment: Gentamicin protection assay of bacterial internalization; conditions: 50 μM, ExoT-producing P. aeruginosa, MOI 10
[3] = system: T3SS-mediated secretion of ExoS′-βLA fusion protein from P. aeruginosa strain MDM973; experiment: microbe, parasite or virus in culture; format: cell-based, Pseudomonas aeruginosa; conditions: for IC50: Pseudomonas aeruginosa
P. aeruginosa = experiment: Minimum inhibitory concentration (broth microdilution); conditions: Pseudomonas aeruginosa, read-out: MIC vs. P. aeruginosa
[4] = system: Chlamydia trachomatis L2 in Hep-2 cells; experiment: Chlamydia trachomatis growth inhibition assay; format: cell-based
Protocol: Inhibition of the growth of Chlamydia trachomatis L2 strain by compounds was measured in 24-well plates essentially according to the method of Wolf et al. (59). Confluent monolayer Hep-2 cells were infected with L2 at an MOI of 0.5 and treated with compounds at indicated concentrations for 48 h. Then cultures were collected and sonicated. Entire lysates were used for counting inclusion forming units (IFUs) as a measurement of production of Chlamydia progeny elementary bodies (EBs) by re-plating onto fresh HeLa monolayers. An uninhibited control (DMSO only) and a complete inhibition control (chloramphenicol, 200 μg/ml) were included. Experiments were done in triplicate.

[5] = system: P. aeruginosa T3SS (exoT-luxCDABE reporter strain MDM852); format: cell-based, Pseudomonas aeruginosa
[6] = 50 μM added after 2.5 hours of T3SS induction

In the case of `CC(Oc1ccc(Cl)cc1Cl)C(=O)NCc1ccc2c(c1)OCO2` (racemic) [Compound 1, N-(benzo[d][1,3]dioxol-5-ylmethyl)-2-(2,4-dichlorophenoxy)propanamide], the IC50 ([1]; read-out: IC50 of YopE-βLA secretion from Y. pestis strain JG153) is reported as ~38 µM, the IC50 ([1]; read-out: yopE-βLA IC50) is reported as 22 µM and the “stimulation of internalization of bacterial cells by HeLa cells” value [2] is reported as “over 11 fold”. For the same molecule, the “time to 50% inhibition of ExoS′-βLA secretion” value [3, 6] was ≤ 15 min, the “time to 100% inhibition of ExoS′-βLA secretion” value [3, 6] was ≤ 45 min and the IC50 ([3]; read-out: ExoS′-βLA IC50, Table 3, secretion from P. aeruginosa strain MDM973 reduced by 50%) was 12.5 µM. For the same molecule, the IC50 ([3]; read-out: IC50 (μM) (ExoS′-βLA assay), Table 4) was 10 µM, the “potency when administered during or after the 2.5 hour EGTA induction of T3SS” value ([3]; unpublished observations) was “equally potently” and the MIC (P. aeruginosa) was > 100 µM. For the same molecule, the “reduction of growth of C. trachomatis L2 in Hep-2 cells” value ([4]; 50 μM, MOI 0.5, listed as MBX 1641) was “significantly reduced; also recorded: inhibits the growth”, the “concentration dependence of effect on C. trachomatis growth in Hep-2 cells” value ([4]; FIG. 3D) was “concentration-dependent effect” and the “Serum Effect” value ([5]; % inhibition of exoT-lux RLU in the absence of serum/% inhibition in the presence of 10% fetal calf serum, both at 50 μM compound) was 3.7. For the same molecule, the “z-score in the high throughput screen” value ([5]; strain MDM852, RLU at 200 minutes) was 10.
